Reference: ChEMBL document CHEMBL1201862, “PubChem BioAssay data set” (2004)
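Results reflect a 48-hour exposure of cells in 96-well plates to compound at five concentrations. Abbreviation: GI50, concentration required for 50% inhibition of growth.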 Active and inactive are the calls of the source. Rule as the data show it: active = GI50 up to about 1.1 µM and inactive = higher.

Experiments:
Experiment in all cases: NCI tumour cell line growth inhibition, 48 h
KM12 = system: KM12
A498 = system: A498
HT-29 = system: HT-29
U-251 = system: U-251
EKVX = system: EKVX
UO-31 = system: UO-31
SK-MEL-2 = system: SK-MEL-2
MDA-N = system: MDA-N
NCI-H23 = system: NCI-H23
CCRF-CEM = system: CCRF-CEM
OVCAR-8 = system: OVCAR-8
UACC-257 = system: UACC-257
UACC-62 = system: UACC-62
IGROV-1 = system: IGROV-1
LOX IMVI = system: LOX IMVI
MDA-MB-435 = system: MDA-MB-435
A549 = system: A549
MCF7 = system: MCF7
BT-549 = system: BT-549

Row | SMILES | GI50 (KM12) | GI50 (A498) | GI50 (HT-29) | GI50 (U-251) | GI50 (EKVX) | GI50 (UO-31) | GI50 (SK-MEL-2) | GI50 (MDA-N) | GI50 (NCI-H23) | GI50 (CCRF-CEM) | GI50 (OVCAR-8) | GI50 (UACC-257) | GI50 (UACC-62) | GI50 (IGROV-1) | GI50 (LOX IMVI) | GI50 (MDA-MB-435) | GI50 (A549) | GI50 (MCF7) | GI50 (BT-549)
1 | CC12CC3CC/C(=N\O)C(C1)C3(N1CCOCC1)C/C2=N/O (configuration not stated) | > 100 µM (inactive) | > 100 µM (inactive) | > 100 µM (inactive) | > 100 µM (inactive) | > 100 µM (inactive) | > 100 µM (inactive) | > 100 µM (inactive) | > 100 µM (inactive) | > 100 µM (inactive) | > 100 µM (inactive) | > 100 µM (inactive) | > 100 µM (inactive) | > 100 µM (inactive) | > 100 µM (inactive) | > 100 µM (inactive) | > 100 µM (inactive) | > 100 µM (inactive) | > 100 µM (inactive) | 
2 | c1ccc(CN2CCC(Nc3ccccc3)(c3nnnn3Cc3ccccc3)CC2)cc1 | 13.3 µM (inactive) | 17.2 µM (inactive) | 11.6 µM (inactive) | 22.6 µM (inactive) | 23.8 µM (inactive) | 6.12 µM (inactive) |  |  | 50 µM (inactive) | 20 µM (inactive) | 32.8 µM (inactive) | 14.1 µM (inactive) | 23.6 µM (inactive) | 28.1 µM (inactive) | 20.1 µM (inactive) | 32.9 µM (inactive) | 32.2 µM (inactive) | 22.4 µM (inactive) | 
3 | O=S(=O)(c1cc(Cl)ccc1Cl)n1ccnc1 | 33.6 µM (inactive) | 31 µM (inactive) | 29.2 µM (inactive) | 33 µM (inactive) | 61.2 µM (inactive) | 85.5 µM (inactive) | 30.5 µM (inactive) |  | 20.9 µM (inactive) | 37.3 µM (inactive) | 35.4 µM (inactive) | 26.7 µM (inactive) | 33.1 µM (inactive) | 41.5 µM (inactive) | 37.7 µM (inactive) | 18.2 µM (inactive) | 58.2 µM (inactive) | 35 µM (inactive) | 35.4 µM (inactive)
4 | C[N+](C)(C)CC(=O)N/N=C(/Cc1nc2ccc([N+](=O)[O-])cc2nc1O)C(=O)Nc1cc(C(F)(F)F)ccc1Cl | > 100 µM (inactive) | > 100 µM (inactive) | > 100 µM (inactive) |  | 76 µM (inactive) | 40.8 µM (inactive) | > 100 µM (inactive) |  | > 100 µM (inactive) | 66.7 µM (inactive) | > 100 µM (inactive) | > 100 µM (inactive) | 94.2 µM (inactive) | > 100 µM (inactive) |  |  | > 100 µM (inactive) |  | 
5 | COc1cc(-c2nc(N)c(C#N)c3c2CCS(=O)(=O)c2ccc(C)cc2-3)cc(OC)c1OC | > 100 µM (inactive) | 29.4 µM (inactive) | > 100 µM (inactive) | 24.8 µM (inactive) |  | > 100 µM (inactive) | 49.7 µM (inactive) | > 100 µM (inactive) | 25.4 µM (inactive) | > 100 µM (inactive) | 4.98 µM (inactive) | > 100 µM (inactive) | > 100 µM (inactive) | 18.7 µM (inactive) | > 100 µM (inactive) | > 100 µM (inactive) | > 100 µM (inactive) |  | 53 µM (inactive)
6 | O=c1[nH]c2ccc([N+](=O)[O-])c(Cl)c2c2ccccc12 | 0.33 µM (active) | 13.2 µM (inactive) | 0.887 µM (active) | 4.43 µM (inactive) | 5.9 µM (inactive) | 9.33 µM (inactive) | 6.1 µM (inactive) |  | 5.87 µM (inactive) | 0.361 µM (active) | 1.29 µM (inactive) | 2.42 µM (inactive) | 3.79 µM (inactive) | 5.87 µM (inactive) | 1.68 µM (inactive) | 2.1 µM (inactive) | 4.7 µM (inactive) | 0.258 µM (active) | 4.04 µM (inactive)
7 | CC1=C(C#N)C(C#N)(C#N)C(NN(C)C)C1 (configuration not stated) | 16.6 µM (inactive) | 20.9 µM (inactive) | 15.4 µM (inactive) | 33.9 µM (inactive) | 14 µM (inactive) | 13.5 µM (inactive) | 20.2 µM (inactive) | 10.1 µM (inactive) | 17.1 µM (inactive) | 3.59 µM (inactive) | 26.3 µM (inactive) | 10.6 µM (inactive) | 15.9 µM (inactive) | 17.8 µM (inactive) | 12.6 µM (inactive) | 23.7 µM (inactive) | 41.5 µM (inactive) | 10.6 µM (inactive) | 
8 | CCOC(=O)c1c(N)n(-c2ccccc2)c(=O)n(-c2ccccc2)c1=O | > 100 µM (inactive) |  | > 100 µM (inactive) | > 100 µM (inactive) |  | > 100 µM (inactive) | > 100 µM (inactive) |  | > 100 µM (inactive) | > 10 µM (inactive) | > 100 µM (inactive) | > 100 µM (inactive) | > 100 µM (inactive) | > 100 µM (inactive) | > 100 µM (inactive) | > 100 µM (inactive) | > 100 µM (inactive) | > 100 µM (inactive) | > 100 µM (inactive)
9 | O=C1/C(=C\c2c(-c3ccccc3)[nH]n(-c3ccccc3)c2=O)C(c2ccccc2)=NN1c1ccccc1 | > 100 µM (inactive) | > 100 µM (inactive) | > 100 µM (inactive) | > 100 µM (inactive) | > 100 µM (inactive) | > 100 µM (inactive) | > 100 µM (inactive) | > 100 µM (inactive) | > 100 µM (inactive) | 79.4 µM (inactive) | > 100 µM (inactive) | > 100 µM (inactive) | > 100 µM (inactive) | > 100 µM (inactive) | > 100 µM (inactive) | > 100 µM (inactive) | > 100 µM (inactive) | > 100 µM (inactive) | 
10 | C=C1C(=O)[C@@]23CC[C@@H]4[C@@]5(C)CCC[C@@]4(OC5=O)C2(C)CC[C@]1(OC)C3 (some centres not stated) | 2.32 µM (inactive) |  | 0.36 µM (active) |  | 9.18 µM (inactive) | 1.79 µM (inactive) | 1.06 µM (active) | 0.52 µM (active) | 1.45 µM (inactive) | 0.0605 µM (active) | 0.611 µM (active) | 1.51 µM (inactive) | 1.35 µM (inactive) | 1.97 µM (inactive) | 0.232 µM (active) | 1.32 µM (inactive) | 3.27 µM (inactive) | 0.255 µM (active) | 
11 | C/C(=N/N)c1ccc2[nH]c3c(C)cc([N+](=O)[O-])c(C)c3c2c1 | > 10 µM (inactive) |  | 8.2 µM (inactive) |  | 22.2 µM (inactive) | 10.5 µM (inactive) | 11.3 µM (inactive) |  |  | 3.13 µM (inactive) | 5.3 µM (inactive) | 18.6 µM (inactive) |  |  | 4.99 µM (inactive) |  | 11.1 µM (inactive) |  | 
12 | CC(C)C1CC=NN1C(=O)OC(C)(C)C (configuration not stated) | > 100 µM (inactive) | > 100 µM (inactive) | > 100 µM (inactive) |  | > 100 µM (inactive) | > 100 µM (inactive) |  | > 100 µM (inactive) | > 100 µM (inactive) | > 100 µM (inactive) | > 100 µM (inactive) | > 100 µM (inactive) | > 100 µM (inactive) | > 100 µM (inactive) | > 100 µM (inactive) | > 100 µM (inactive) | > 100 µM (inactive) | > 100 µM (inactive) | 
13 | CC(=NNC(=S)Nc1ccc(C)cc1)c1cccc(C(C)=NNC(=S)Nc2ccc(C)cc2)n1 | 13.8 µM (inactive) | 20.9 µM (inactive) | 11.9 µM (inactive) | 31.3 µM (inactive) | 21.5 µM (inactive) | 6.68 µM (inactive) | 68.7 µM (inactive) | 19.9 µM (inactive) | 22 µM (inactive) | 7.5 µM (inactive) | 6.44 µM (inactive) | 13.9 µM (inactive) | 7.14 µM (inactive) | 12.1 µM (inactive) | 9.91 µM (inactive) | 13.6 µM (inactive) | 12.9 µM (inactive) | > 100 µM (inactive) | 
14 | CC1CCc2sc3nc4n(c(=O)c3c2C1)CC(C)S4 (configuration not stated) | 28.3 µM (inactive) |  | 15.8 µM (inactive) | 25.6 µM (inactive) | 15.1 µM (inactive) | 2.77 µM (inactive) | 19.5 µM (inactive) | 28.4 µM (inactive) | 25.3 µM (inactive) |  | 32.2 µM (inactive) | 20.2 µM (inactive) | 16.2 µM (inactive) | 34.2 µM (inactive) | 20.9 µM (inactive) | 34.4 µM (inactive) | 21 µM (inactive) | 24 µM (inactive) | 27.5 µM (inactive)
15 | CN1c2ccccc2C(=O)NC12CCNCC2 | > 100 µM (inactive) | > 100 µM (inactive) | > 100 µM (inactive) | > 100 µM (inactive) | > 100 µM (inactive) | > 100 µM (inactive) |  |  | > 100 µM (inactive) | > 100 µM (inactive) | > 100 µM (inactive) | > 100 µM (inactive) | > 100 µM (inactive) | > 100 µM (inactive) | > 100 µM (inactive) | > 100 µM (inactive) | > 100 µM (inactive) | > 100 µM (inactive) | 
16 | COc1cc2c(cc1OCCCCOc1cc3nc(C)nc(Cl)c3cc1OC)N=C[C@@H]1CCCN1C2=O | 1.89 µM (inactive) |  | 2.42 µM (inactive) | 1.26 µM (inactive) | 4.73 µM (inactive) | 1.88 µM (inactive) | 1.95 µM (inactive) |  | 1.82 µM (inactive) |  | 3.01 µM (inactive) | 2.29 µM (inactive) | 1.48 µM (inactive) | 1.64 µM (inactive) | 1.27 µM (inactive) | 1.62 µM (inactive) | 2.79 µM (inactive) | 3.03 µM (inactive) | 2.17 µM (inactive)
17 | CN(C)c1ccc(/C=N/Nc2nc3ccccc3c(=O)n2-c2ccccc2)cc1 | > 100 µM (inactive) | 63.2 µM (inactive) | > 100 µM (inactive) | 34 µM (inactive) |  | > 100 µM (inactive) |  | 74.3 µM (inactive) | > 100 µM (inactive) | > 100 µM (inactive) | 46.9 µM (inactive) | > 100 µM (inactive) | 28.6 µM (inactive) | > 100 µM (inactive) | > 100 µM (inactive) | > 100 µM (inactive) | > 100 µM (inactive) | > 100 µM (inactive) | 
